# Assay results as given in patent US10774071B2, “PD-1/PD-L1 inhibitors” (Gilead Sciences, Inc., priority 2018, dated 2020).
# Like-named read-outs stand apart in the source and are kept apart here.
# Assays:
# PD-L1 = PD-L1 (Homo sapiens (Human), UniProt Q9NZQ7); test: PD-L1/PD-L1 dimerization biochemical protein-protein interaction assay (ALPHA); assay type: binding; conditions: read-out: AC50 PDL1 Dimer 1 nM
# PD-1/PD-L1 = PD-1/PD-L1 (Homo sapiens (Human), UniProt Q9NZQ7); test: PD-1/PD-L1 biochemical protein-protein interaction assay (ALPHA); assay type: binding; conditions: read-out: IC50 PD-L1-PD1
# [1] = 0.5 nM His tagged PD-L1 and 0.5 nM FLAG tagged PD-L1, Table 4B
# [2] = 0.3 nM His tagged PD-L1, 2.5 nM biotinylated Fc-PD-1, Table 3B
# [3] = 0.5 nM His tagged PD-L1 and 0.5 nM FLAG tagged PD-L1, Table 4A
# [4] = 0.3 nM His tagged PD-L1, 2.5 nM biotinylated Fc-PD-1, readings of 0.064 nM are equal to or less than 0.064 nM
# Sequence of PD-1/PD-L1 (Q9NZQ7 19-238): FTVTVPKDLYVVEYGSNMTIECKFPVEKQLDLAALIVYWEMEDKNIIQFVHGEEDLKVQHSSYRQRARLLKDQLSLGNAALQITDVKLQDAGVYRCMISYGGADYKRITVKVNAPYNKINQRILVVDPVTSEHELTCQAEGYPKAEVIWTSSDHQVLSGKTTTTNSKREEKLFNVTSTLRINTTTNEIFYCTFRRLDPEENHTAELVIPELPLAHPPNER
# Sequence of PD-L1 (Q9NZQ7 19-238): as above
# Sequence of PD-L1 (Q9NZQ7 19-238): as above
AC50 (PD-L1; [1]) [nM],IC50 (PD-1/PD-L1; [2]) [nM],AC50 (PD-L1; [3]) [nM],IC50 (PD-1/PD-L1; [4]) [nM],SMILES
1.91,0.064,,,COc1nc(-c2cccc(-c3cccc4c3CC[C@@H]4Oc3nc(OC)c(CN[C@@H](C)C(=O)O)cc3C(F)(F)F)c2Cl)ccc1CNC[C@@H]1CCC(=O)N1 [B-271]
20.7,0.064,,,COc1nc(-c2cccc(-c3cccc4c3CC[C@@H]4Oc3nc(OC)c(CN4CC[C@H](C(=O)O)C4)cc3Cl)c2Cl)ccc1CNC[C@@H]1CCC(=O)N1 [B-114]
19.2,0.064,,,COc1nc(-c2cccc(-c3cccc4c3CC[C@@H]4Oc3nc(OC)c(CN4CC(C(=O)O)C4C)cc3Cl)c2Cl)ccc1CNC[C@@H]1CCC(=O)N1 (stereo partly shown) [B-9]
,,40.3,≤ 0.064,COc1nc(-c2cccc(-c3cccc4c3CC[C@@H]4Nc3nc(OC)c(CN[C@@H](C)C(N)=O)cc3C(F)(F)F)c2Cl)ccc1CNC[C@@H]1CCC(=O)N1 [A-98]
55,0.064,,,COc1nc(-c2cccc(-c3cccc4c3CC[C@@H]4Oc3nc(OC)c(CN4C[C@@H]5CC[C@]5(C(=O)O)C4)cc3Cl)c2Cl)ccc1CNC[C@@H]1CCC(=O)N1 [B-93]
17.9,0.064,,,COc1nc(-c2cccc(-c3cccc4c3CC[C@@H]4Oc3nc(OC)c(CN4CCCC(C(=O)O)CC4)cc3Cl)c2Cl)ccc1CNC[C@@H]1CCC(=O)N1 (stereo partly shown) [B-177]
19.1,0.064,,,COc1nc(-c2cccc(-c3cccc4c3CC[C@@H]4Oc3nc(OCc4cncc(Cl)c4)c(CN4CC[C@H](C(=O)O)C4)cc3Cl)c2Cl)ccc1CNC[C@@H]1CCC(=O)N1 [B-49]
32.3,0.085,,,COc1nc(-c2cccc(-c3cccc4c3CC[C@@H]4Oc3nc(OCc4cc(Cl)cc(C#N)c4)c(CN4CC5(C(=O)O)CCC4CC5)cc3Cl)c2Cl)ccc1CNC[C@@H]1CCC(=O)N1 [B-31]
13.4,0.074,,,COc1nc(-c2cccc(-c3cccc4c3CC[C@@H]4Oc3nc(OCC#N)c(CNC4(C(=O)O)CC4)cc3C(F)(F)F)c2Cl)ccc1CNC[C@@H]1CCC(=O)N1 [B-22]
2.26,0.064,,,COc1nc(-c2cccc(-c3cccc4c3CC[C@@H]4Oc3nc(OC)c(CNCC(=O)O)cc3C(F)(F)F)c2Cl)ccc1CNC[C@@H]1CCC(=O)N1 [B-272]
11.4,0.064,,,COc1nc(-c2cccc(-c3cccc4c3CC[C@@H]4Oc3nc(OC)c(CNCCC(=O)O)cc3C(F)(F)F)c2Cl)ccc1CN[C@H]1C[C@](C)(O)C1 [B-254]
6.22,0.064,,,COc1nc(-c2cccc(-c3cccc4c3CC[C@@H]4Oc3nc(OC)c(CN4CC5(C(=O)O)CCC4CC5)cc3C(F)(F)F)c2Cl)ccc1CNC[C@@H]1CCC(=O)N1 [B-61]
18.9,0.064,,,COc1nc(-c2cccc(-c3cccc4c3CC[C@@H]4Oc3nc(OC)c(CN4CC5CCCC4(C(=O)O)C5)cc3Cl)c2Cl)ccc1CNC[C@@H]1CCC(=O)N1 (stereo partly shown) [B-181]
3.76,0.064,,,COc1cc(-c2cccc(-c3cccc4c3CC[C@@H]4Oc3nc(OC)c(CNC4(C(=O)O)CC4)cc3C(F)(F)F)c2Cl)cc(F)c1CNC[C@@H]1CCC(=O)N1 [B-193]
5.94,0.064,,,COc1nc(-c2cccc(-c3cccc4c3CC[C@@H]4Oc3nc(OC)c(CNC(C)(C)C(=O)O)cc3C)c2Cl)ccc1CNC[C@@H]1CCC(=O)N1 [B-245]
,,51.6,≤ 0.064,COc1cc(N[C@H]2CCc3c(-c4cccc(-c5ccc(CNC[C@@H]6CCC(=O)N6)c(OC)n5)c4Cl)cccc32)c(Cl)cc1CN1CC[C@H](C(=O)O)C1 [A-15]
40.5,0.076,,,COc1nc(-c2cccc(-c3cccc4c3CC[C@@H]4Oc3nc(OC)c(CN4CCC(NC(C)=O)C4)cc3Cl)c2Cl)ccc1CNC[C@@H]1CCC(=O)N1 (stereo partly shown) [B-64]
20.7,0.064,,,COc1nc(-c2cccc(-c3cccc4c3CC[C@@H]4Oc3nc(OC)c(CN4CCC[C@@]4(C)C(=O)O)cc3C)c2Cl)ccc1CNC[C@@H]1CCC(=O)N1 [B-237]
6.79,0.064,,,COc1nc(O[C@H]2CCc3c(-c4cccc(-c5ccc(CNC[C@@H]6CCC(=O)N6)c(OCC#N)n5)c4Cl)cccc32)c(C(F)(F)F)cc1CNC1(C(=O)O)CC1 [B-125]
,,26.6,≤ 0.064,CCC1C(C(=O)O)CCN1Cc1nc(C(F)(F)F)c(N[C@H]2CCc3c(-c4cccc(-c5ccc(CNC[C@@H]6CCC(=O)N6)c(OC)n5)c4Cl)cccc32)nc1OC (stereo partly shown) [A-77]
5.4,0.064,,,COc1nc(-c2cccc(-c3cccc4c3CC[C@@H]4Oc3nc(OC)c(CN4CC(C)(C(=O)O)C4)cc3Cl)c2Cl)ccc1CNC[C@@H]1CCC(=O)N1 [B-10]
,,8.64,≤ 0.064,COc1nc(-c2cccc(-c3cccc4c3CC[C@@H]4Nc3nc(OC)c(CNCC(=O)O)nc3C(F)(F)F)c2Cl)ccc1CNC[C@@H]1CCC(=O)N1 [A-107]

AC50 (PD-L1; [1]) [nM],IC50 (PD-1/PD-L1; [2]) [nM],AC50 (PD-L1; [3]) [nM],IC50 (PD-1/PD-L1; [4]) [nM],SMILES
3.43,0.064,,,COc1nc(-c2cccc(-c3cccc4c3CC[C@@H]4Oc3nc(OC)c(CN4CC[C@@](C)(C(=O)O)C4)cc3C(F)(F)F)c2Cl)ccc1CNC[C@@H]1CC(O)C(=O)N1 (stereo partly shown) [B-202]
7.82,0.064,,,COc1nc(-c2cccc(-c3cccc4c3CC[C@@H]4Oc3nc(OC)c(CN4CC(C(=O)O)C4)cc3C(F)(F)F)c2Cl)ccc1CNC[C@@H]1CCC(=O)N1 [B-63]
8.73,0.064,,,COc1nc(-c2cccc(-c3cccc4c3CC[C@@H]4Oc3nc(OC)c(CN(C)[C@@H](C)C(=O)O)cc3C(F)(F)F)c2Cl)ccc1CNC[C@@H]1CCC(=O)N1 [B-257]
309,0.54,,,COc1nc(-c2cccc(-c3cccc4c3CC[C@@H]4Oc3nc(OC)c(CN4CC[C@@H](C(=O)N=S(C)(=O)N(CC(F)(F)F)CC(F)(F)F)C4)cc3Cl)c2Cl)ccc1CNC[C@@H]1CCC(=O)N1 (stereo partly shown) [B-160]
,,8.04,≤ 0.064,COc1nc(-c2cccc(-c3cccc4c3CC[C@@H]4Nc3nc(OC)c(CN[C@@H](C)C(=O)O)cc3C(F)(F)F)c2Cl)ccc1CNC[C@@H]1CCC(=O)N1 [A-64]
43.2,0.064,,,COc1nc(-c2cccc(-c3cccc4c3CC[C@@H]4Oc3nc(OC)c(CN4CC(C(=O)O)C4)nc3C)c2Cl)ccc1CNC[C@@H]1CCC(=O)N1 [B-148]
,,13.2,≤ 0.064,COc1nc(-c2cccc(-c3cccc4c3CC[C@@H]4Nc3nc(OC)c(CN4CC(C(=O)O)C4)cc3C(F)(F)F)c2Cl)ccc1CNC[C@@H]1CCC(=O)N1 [A-55]
,,16.9,≤ 0.064,COc1nc(-c2cccc(-c3cccc4c3CC[C@@H]4Nc3nc(OC)c(CN4CCC[C@]4(C)C(=O)O)cc3C(F)(F)F)c2Cl)ccc1CNC[C@@H]1CCC(=O)N1 [A-38]
102,0.22,,,COc1nc(-c2cccc(-c3cccc4c3CC[C@@H]4Oc3nc(OC)c(CNC[C@@H]4CCC(=O)N4)nc3Cl)c2Cl)ccc1CNC[C@@H]1CCC(=O)N1 [B-155]
3.02,0.064,,,CC[C@](C)(NCc1cc(C(F)(F)F)c(O[C@H]2CCc3c(-c4cccc(-c5ccc(CNC[C@@H]6CCC(=O)N6)c(OC)n5)c4Cl)cccc32)nc1OC)C(=O)O [B-236]
14.2,0.079,,,COc1nc(-c2cccc(-c3cccc4c3CC[C@@H]4Oc3nc(OC)c(CN[C@@H](C)C(N)=O)cc3C(F)(F)F)c2Cl)ccc1CNC[C@@H]1CCC(=O)N1 [B-265]
,,23.1,≤ 0.064,COc1nc(-c2cccc(-c3cccc4c3CC[C@@H]4Nc3nc(OC)c(CN4CC5CC(C(=O)O)C4C5)nc3C(F)(F)F)c2Cl)ccc1CNC[C@@H]1CCC(=O)N1 (stereo partly shown) [A-81]
66.2,0.072,,,COc1nc(-c2cccc(-c3cccc4c3CC[C@@H]4Oc3nc(OC)c(CNC[C@@H]4CCC(=O)N4)nc3C)c2Cl)ccc1CNC[C@@H]1CCC(=O)N1 [B-151]
23.7,0.064,,,COc1nc(-c2cccc(-c3cccc4c3CC[C@@H]4Oc3nc(OC)c(CN(C)CC(=O)O)cc3C(F)(F)F)c2Cl)ccc1CN[C@H]1C[C@](C)(O)C1 [B-210]
28.5,0.251,,,COc1nc(-c2cccc(-c3cccc4c3CC[C@@H]4Oc3nc(OC)c(CNCC(N)=O)cc3C(F)(F)F)c2Cl)ccc1CNC[C@@H]1CCC(=O)N1 [B-266]
13.1,0.064,,,COC[C@H](NCc1cc(C(F)(F)F)c(O[C@H]2CCc3c(-c4cccc(-c5ccc(CN[C@H]6C[C@](C)(O)C6)c(OC)n5)c4Cl)cccc32)nc1OC)C(=O)O [B-256]
,,17.8,≤ 0.064,COc1nc(-c2cccc(-c3cccc4c3CC[C@@H]4Nc3nc(OC)c(CN4CCC[C@@]4(C)C(=O)O)cc3C(F)(F)F)c2Cl)ccc1CNC[C@@H]1CCC(=O)N1 [A-39]
,,6.28,≤ 0.064,COc1nc(-c2cccc(-c3cccc4c3CC[C@@H]4Nc3nc(OC)c(CN[C@@H](C)C(=O)N(C)C)nc3C(F)(F)F)c2Cl)ccc1CNC[C@@H]1CCC(=O)N1 [A-97]
12.5,0.064,,,COc1nc(-c2cccc(-c3cccc4c3CC[C@@H]4Oc3nc(OC)c(CNC(C)(C)CC(=O)O)cc3Cl)c2Cl)ccc1CNC[C@@H]1CCC(=O)N1 [B-197]
20.9,0.064,,,COc1nc(-c2cccc(-c3cccc4c3CC[C@@H]4Oc3nc(OC)c(CN4CC5(C(=O)O)CCC4CC5)cc3C(F)(F)F)c2Cl)ccc1CN[C@H]1C[C@](C)(O)C1 [B-4]
41,0.189,,,COc1nc(-c2cccc(-c3cccc4c3CC[C@@H]4Oc3nc(OCc4ccc(-n5cccn5)nc4)c(CN4CC5(C(=O)O)CCC4CC5)cc3Cl)c2Cl)ccc1CNC[C@@H]1CCC(=O)N1 [B-56]

SMILES,AC50 (PD-L1; [1]) [nM],IC50 (PD-1/PD-L1; [2]) [nM],AC50 (PD-L1; [3]) [nM],IC50 (PD-1/PD-L1; [4]) [nM]
COc1nc(-c2cccc(-c3cccc4c3CC[C@@H]4Nc3nc(OC)c(CN4C5CCC4(C(=O)O)CC5)nc3C(F)(F)F)c2Cl)ccc1CNC[C@@H]1CCC(=O)N1 [A-69],,,5.27,≤ 0.064
